What was measured:
CD8+ T cells = experiment: ELISPOTs detection of IFN-γ secretion by peptide-specific CD8+ T cells; type: cell-based, human; conditions: ratio of spot numbers; >2 immunogenic
[1] = tested on: H2087-TLISSLMPI (SEQ ID NO: 2) subcutaneous tumor; experiment: DC vaccine infected with recombinant lentivirus containing peptide gene in H2087-[…] tumor model; type: in vivo, NOD/SCID mice; conditions: DC infected with lentivirus carrying peptide gene, 2 injections
Source text: The following DNA sequences were synthesized: “[…]” (SEQ ID NO: 8), encoding the wild-type peptide […] (SEQ ID NO: 1); “[…]” (SEQ ID NO: 9), encoding the mutant peptide […] (SEQ ID NO: 2); “[…]” (SEQ ID NO: 10), encoding the SEQ ID NO: 2 […]'s variant peptide […] (SEQ ID NO: 3); “[…]” (SEQ ID NO: 11), encoding the SEQ ID NO: 2 […]'s variant peptide […] (SEQ ID NO: 4); “[…]” (SEQ ID NO: 12), encoding the SEQ ID NO: 2 […]'s variant peptide […] (SEQ ID NO: 5); “[…]” (SEQ ID NO: 13), encoding the SEQ ID NO: 2 […]'s variant peptide […] (SEQ ID NO: 6); and “[…]” (SEQ ID NO: 14), encoding the SEQ ID NO: 2_[…]'s variant peptide […] (SEQ ID NO: 7). The wild-type peptide […] (SEQ ID NO: 1), the mutant peptide […] (SEQ ID NO: 2) and the mutant peptide SEQ ID NO: 2 […]'s variant peptides were constructed into the lentiviral vector pHBLV-Puro, respectively, to name as pHBLV-Puro-[…] (SEQ ID NO: 1), pHBLV-Puro-[…] (SEQ ID NO: 2), pHBLV-Puro-[…] (SEQ ID NO: 3), pHBLV-Puro-[…] (SEQ ID NO: 4), pHBLV-Puro-[…] (SEQ ID NO: 5), pHBLV-Puro-[…] (SEQ ID NO: 6) and pHBLV-Puro-[…] (SEQ ID NO: 7), respectively. The seven lentiviral constructs were co-transfected into 293T cells with helper plasmids pSPAX2 and pMD2G for packaging, and lentiviruses of the wild-type peptide […] (SEQ ID NO: 1), the mutant peptide […] (SEQ ID NO: 2) and the mutant peptide's variant peptides were obtained.
600-900 ml of anticoagulated peripheral blood was collected from healthy volunteers for isolating peripheral blood mononuclear cells (PBMCs) via Ficoll. Cells were collected for use. 2×10^7 PBMCs per 0.5 ml was intraperitoneally injected into each of 300 NOD SCID mice without immune leakage to perform human immune reconstitution in NOD SCID mice. […]
(§1) The human non-small cell lung adenocarcinoma cell line H2087-[…] […] The long diameter a and the short diameter b of the tumor were measured with a vernier caliper every 2-3 days and the size of the tumor was calculated as a*b*b/2. The mice and tumors were weighed and recorded every day. […] The tumor volume and the survival rate of mice were recorded every 2 days. […]

[2] = tested on: H2087-TLISSLMPI (SEQ ID NO: 2) subcutaneous tumor; experiment: DC peptide vaccine in H2087-[…] subcutaneous tumor model; type: in vivo, NOD/SCID mice; conditions: DC loaded with peptide, intracutaneous, 2 injections; vs DC loaded with wild-type peptide
Procedure: 600-900 ml of anticoagulated peripheral blood was collected from healthy volunteers for isolating peripheral blood mononuclear cells (PBMCs) via Ficoll. Cells were collected for use. 2×10^7 PBMCs per 0.5 ml was intraperitoneally injected into each of 300 NOD SCID mice without immune leakage to perform human immune reconstitution in NOD SCID mice. After 4 weeks, the mice were selected to be inoculated with the human lung cancer cell line.
as §1, with “line H2087-[…] (SEQ ID NO: 2) as established in Example 7 was cultured in DMEM medium containing 10% fetal bovine serum, 100 U/mL penicillin and 100 U/mL streptomycin in an incubator at 37° C., 5% CO2.” for “line”
Tumor-bearing mice were randomly divided into 7 groups: DC loaded with wild-type peptide group, DC loaded with the mutant peptide […] […] After injection, vital signs of the mice were observed, and the vertical and horizontal dimensions of tumors were measured with a vernier caliper every two days. Tumor volume was calculated as follows: tumor volume=½×length×width^2. […]

Sequence: TLISSLMPI [tumor antigen peptide from CACNA1H mutation, position 1428 arginine to methionine]
- Fold (tested/wild-type) (CD8+ T cells): 9.27
- Tumor-suppressing effect [1]: significant tumor-suppressing effects
- Survival period of mice ([1]; vs wild-type peptide group): prolonged the survival period of mice
- Survival period of mice [2]: significantly prolonged survival period of mice
- Tumor growth [2]: slowed down tumor growth in mice
